Reference: US12696902B2, “Pesticidal pyrazole and triazole derivatives” (priority 2019, dated 2026)

Legend:
Format in all cases: in vivo
[1] = test system: Tobacco Budworm (Heliothis virescens); assay: Action on tobacco budworm, egg and larval mortality on insect diet in microtiter plates; conditions: 120 h, H. virescens eggs on insect diet, egg and larval mortality after 5 days, read-out: mortality in comparison with untreated controls
Procedure: For evaluating control of tobacco budworm (Heliothis virescens) the test unit consisted of 96-well-microtiter plates containing an insect diet and 15-25 H. virescens eggs.
The compounds were formulated using a solution containing 75% v/v water and 25% v/v DMSO. Different concentrations of formulated compounds were sprayed onto the insect diet at 10 μl, using a custom built micro atomizer, at two replications.
After application, microtiter plates were incubated at about 28+1° C. and about 80+5% relative humidity for 5 days. Egg and larval mortality were then visually assessed.

[2] = test system: Diamond Back Moth (Plutella xylostella); assay: Action on diamond back moth, cabbage leaf dip; conditions: foliar, 3rd instar larvae on dipped cabbage leaves, 72 hours after treatment, read-out: mortality in comparison with untreated controls
Procedure: The active compound is dissolved at the desired concentration in a mixture of 1:1 (v/v) distilled water:acetone. Surfactant (Kinetic® HV) is added at a rate of 0.01% (v/v). The test solution is prepared at the day of use.
Leaves of cabbage were dipped in test solution and air-dried. Treated leaves were placed in petri dishes lined with moist filter paper and inoculated with ten 3rd instar larvae. Mortality was recorded 72 hours after treatment. Feeding damages were also recorded using a scale of 0-100%.

[3] = test system: Southern Armyworm (Spodoptera eridania), 2nd Instar Larvae; assay: Action on southern armyworm 2nd instar larvae on sprayed lima bean plants; conditions: 96 h, 4 days after treatment, read-out: mortality in comparison with untreated controls
Procedure: The active compounds were formulated by a Tecan liquid handler in 100% cyclohexanone as a 10,000 ppm solution supplied in tubes. The 10,000 ppm solution was serially diluted in 100% cyclohexanone to make interim solutions. These served as stock solutions for which final dilutions were made by the Tecan in 50% acetone:50% water (v/v) into 10 or 20 ml glass vials. A nonionic surfactant (Kinetic®) was included in the solution at a volume of 0.01% (v/v). The vials were then inserted into an automated electrostatic sprayer equipped with an atomizing nozzle for application to plants/insects.
Lima bean plants (variety Sieva) were grown 2 plants to a pot and selected for treatment at the 1st true leaf stage. Test solutions were sprayed onto the foliage by an automated electrostatic plant sprayer equipped with an atomizing spray nozzle. The plants were dried in the sprayer fume hood and then removed from the sprayer. Each pot was placed into perforated plastic bags with a zip closure. About 10 to 11 armyworm larvae were placed into the bag and the bags zipped closed. Test plants were maintained in a growth room at about 25° C. and about 20-40% relative humidity for 4 days, avoiding direct exposure to fluorescent light (24 hour photoperiod) to prevent trapping of heat inside the bags. Mortality and reduced feeding were assessed 4 days after treatment, compared to untreated control plants.

[4] = test system: Yellow Fever Mosquito (Aedes aegypti); assay: whole plant or invertebrate; conditions: 48 h, freshly hatched A. aegypti larvae, larval mortality visually assessed after 2 days, read-out: mortality in comparison with untreated controls
Procedure: For evaluating control of yellow fever mosquito (Aedes aegypti) the test unit consisted of 96-well-microtiter plates containing 200 μl of tap water per well and 5-15 freshly hatched A. aegypti larvae.
The active compounds or mixtures were formulated using a solution containing 75% (v/v) water and 25% (v/v) DMSO. Different concentrations of formulated compounds or mixtures were sprayed onto the insect diet at 2.5 μl, using a custom built micro atomizer, at two replications. For experimental mixtures in these tests identical volumes of both mixing partners at the desired concentrations respectively, were mixed together.
After application, microtiter plates were incubated at 28±1° C., 80±15% RH for 2 days. Larval mortality was then visually assessed.

[5] = test system: Boll Weevil (Anthonomus grandis); assay: Action on boll weevil, egg and larval mortality on insect diet in microtiter plates; conditions: 120 h, A. grandis eggs on insect diet, egg and larval mortality after 5 days, read-out: mortality in comparison with untreated controls
Procedure: For evaluating control of boll weevil (Anthonomus grandis) the test unit consisted of 96-well-microtiter plates containing an insect diet and 5-10 A. grandis eggs.
The compounds were formulated using a solution containing 75% (v/v) water and 25% (v/v) DMSO. Different concentrations of formulated compounds were sprayed onto the insect diet at 5 μl, using a custom built micro atomizer, at two replications.
After application, microtiter plates were incubated at about 25+1° C. and about 75+5% relative humidity for 5 days. Egg and larval mortality were then visually assessed.

[6] = test system: Orchid Thrips (Dichromothrips corbetti); assay: Action on orchid thrips, floral-immersion technique; conditions: adult thrips, 72 hours after treatment, read-out: mortality in comparison with untreated controls
Procedure: Dichromothrips corbetti adults used for bioassay were obtained from a colony maintained continuously under laboratory conditions. For testing purposes, the test compound is diluted in a 1:1 mixture of acetone:water (vol:vol), plus Kinetic® HV at a rate of 0.01% v/v.
Thrips potency of each compound was evaluated by using a floral-immersion technique. All petals of individual, intact orchid flowers were dipped into treatment solution and allowed to drying Petri dishes. Treated petals were placed into individual re-sealable plastic along with about 20 adult thrips. All test arenas were held under continuous light and a temperature of about 28° C. for duration of the assay. After 3 days, the numbers of live thrips were counted on each petal. The percent mortality was recorded 72 hours after treatment.

Row | SMILES | mortality at 800 ppm [1] [%] | mortality at 500 ppm [2] [%] | mortality at 300 ppm [3] [%] | mortality at 800 ppm [4] [%] | mortality at 800 ppm [5] [%] | mortality at 500 ppm [6] [%]
1 | Cc1cc(/C=N/N2C(=O)CS/C2=N\c2ccccc2C(C)C)ccc1-n1cc(NC(=O)c2ccc(OC(F)(F)F)cc2)c(C)n1 [Compound C-11, N-[1-[4-[(E)-[(2Z)-2-(2-isopropylphenyl)imino-4-oxo-thiazolidin-3-yl]iminomethyl]-2-methyl-phenyl]-3-methyl-pyrazol-4-yl]-4-(trifluoromethoxy)benzamide] | ≥ 75 | ≥ 75 | ≥ 75 | ≥ 50 | ≥ 75 | 
2 | Cc1nn(-c2ccc(/C=N/NC(=S)Nc3ccccc3C(C)C)cc2)cc1NC(=O)c1ccc2c(c1)OC(F)(F)O2 [Compound C-16, 2,2-difluoro-N-[1-[4-[(E)-[(2-isopropylphenyl)carbamothioylhydrazono]methyl]phenyl]-3-methyl-pyrazol-4-yl]-1,3-benzodioxole-5-carboxamide] | ≥ 75 | ≥ 75 | ≥ 75 | ≥ 50 | ≥ 75 | ≥ 75
3 | Cc1nn(-c2ccc(/C=N/N=C3\SCC(=O)N3c3ccccc3C(C)C)cc2)cc1NC(=O)c1ccc2c(c1)OC(F)(F)O2 [Compound C-17, 2,2-difluoro-N-[1-[4-[(E)-[(Z)-[3-(2-isopropylphenyl)-4-oxo-thiazolidin-2-ylidene]hydrazono]methyl]phenyl]-3-methyl-pyrazol-4-yl]-1,3-benzodioxole-5-carboxamide] | ≥ 75 | ≥ 75 | ≥ 75 | ≥ 50 | ≥ 75 | 
4 | Cc1nn(-c2ccc(/C=N/NC(=S)Nc3ccccc3C(C)C)cc2)cc1C(=N)Nc1ccc(OC(F)(F)F)cc1 [Compound C-52, 1-(2-isopropylphenyl)-3-[(E)-[4-[3-methyl-4-[N-[4-(trifluoromethoxy)phenyl]carbamimidoyl]pyrazol-1-yl]phenyl]methyleneamino] thiourea] | ≥ 75 | ≥ 75 | ≥ 75 | ≥ 50 | ≥ 75 | ≥ 75
5 | Cc1nn(-c2ccc(/C=N/N3C(=O)CS/C3=N\c3ccccc3C(C)C)cc2)cc1C(=N)Nc1ccc(OC(F)(F)F)cc1 [Compound C-53, 1-[4-[(E)-[(2Z)-2-(2-isopropylphenyl)imino-4-oxo-thiazolidin-3-yl]iminomethyl]phenyl]-3-methyl-N-[4-(trifluoromethoxy)phenyl]pyrazole-4-carboxamidine] | ≥ 75 | ≥ 75 | ≥ 75 | ≥ 50 | ≥ 75 | 
